In patent publication US5986131A, “RXR selective ligands” (Hoffmann-La Roche Inc., priority 1997, dated 1999):

Assays:
RARα [1] = target: T1, RARα (Homo sapiens, UniProt P10276); assay: RARα activation (transactivation); assay type: cell-based; details: Table 6
T1 sequence (P10276 1-462): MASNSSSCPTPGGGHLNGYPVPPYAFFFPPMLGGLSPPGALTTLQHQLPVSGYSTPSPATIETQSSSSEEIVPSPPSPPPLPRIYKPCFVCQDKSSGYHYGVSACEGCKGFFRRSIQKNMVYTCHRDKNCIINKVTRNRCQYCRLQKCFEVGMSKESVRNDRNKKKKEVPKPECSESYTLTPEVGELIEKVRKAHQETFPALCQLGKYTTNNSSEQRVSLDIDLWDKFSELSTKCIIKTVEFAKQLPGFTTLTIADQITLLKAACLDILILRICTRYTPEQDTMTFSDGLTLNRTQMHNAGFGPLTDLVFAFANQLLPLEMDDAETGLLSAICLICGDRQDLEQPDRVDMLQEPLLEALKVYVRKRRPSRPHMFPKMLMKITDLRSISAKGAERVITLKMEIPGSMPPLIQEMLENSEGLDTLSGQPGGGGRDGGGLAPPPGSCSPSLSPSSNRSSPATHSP
Description: (§1) Methods essentially as described in those publications were used to determine the binding and transactivation properties of retinoids reported in the Examples herein.

RXRα = target: T2, RXRα (Homo sapiens, UniProt P19793); assay: RXRα activation (transactivation); assay type: cell-based; details: Table 6; @ 1000 nM; read-out: RXR Activation % max (α)
T2 sequence (P19793 1-462): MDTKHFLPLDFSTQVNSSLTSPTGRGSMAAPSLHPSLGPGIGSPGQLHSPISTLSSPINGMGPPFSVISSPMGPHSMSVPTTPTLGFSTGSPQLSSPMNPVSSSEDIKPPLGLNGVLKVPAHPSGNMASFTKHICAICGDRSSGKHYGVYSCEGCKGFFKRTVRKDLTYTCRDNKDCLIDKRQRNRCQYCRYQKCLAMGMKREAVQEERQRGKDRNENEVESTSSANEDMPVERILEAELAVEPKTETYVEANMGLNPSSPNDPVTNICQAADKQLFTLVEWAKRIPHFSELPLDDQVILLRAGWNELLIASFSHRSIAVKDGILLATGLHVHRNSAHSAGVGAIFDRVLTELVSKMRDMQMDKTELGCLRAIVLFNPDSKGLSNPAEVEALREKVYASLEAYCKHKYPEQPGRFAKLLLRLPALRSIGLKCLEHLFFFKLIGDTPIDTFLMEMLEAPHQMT
Description: as §1

RARα [2] = target: T1, RARα; assay: RARα binding; details: Table 6; read-out: RAR Binding IC50 (α)
Description: as §1

RAR β [3] = target: T3, RAR β (Homo sapiens, UniProt P10826); assay: RARβ activation (transactivation); assay type: cell-based; details: Table 6
T3 sequence (P10826 1-455): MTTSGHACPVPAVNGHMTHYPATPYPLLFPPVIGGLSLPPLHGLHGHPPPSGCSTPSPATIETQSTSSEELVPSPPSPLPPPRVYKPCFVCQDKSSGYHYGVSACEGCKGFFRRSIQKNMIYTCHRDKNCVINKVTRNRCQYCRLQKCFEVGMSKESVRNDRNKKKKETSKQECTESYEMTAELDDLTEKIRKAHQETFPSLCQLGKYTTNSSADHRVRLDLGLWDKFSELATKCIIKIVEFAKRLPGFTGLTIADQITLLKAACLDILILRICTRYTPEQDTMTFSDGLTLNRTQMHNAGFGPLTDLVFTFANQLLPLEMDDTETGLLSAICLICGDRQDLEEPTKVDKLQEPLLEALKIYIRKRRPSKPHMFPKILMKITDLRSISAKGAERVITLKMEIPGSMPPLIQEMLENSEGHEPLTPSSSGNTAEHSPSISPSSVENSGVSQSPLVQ
Description: (§2) Methods for determining the binding and transactivation properties of retinoids with regard to the RAR receptors and RXR receptors are known in the art, e.g., Levin et al., Nature, 355:359-361 (Jan. 23, 1992); Allenby et al., Proc. Natl. Acad. Sci. USA, 90:30-34 (January, 1993); Allenby et al., J. Biol. Chem., 269:16689-16695 (Jun. 17, 1994). Methods essentially as described in those publications were used to determine the binding and transactivation properties of retinoids reported in the Examples herein.
(§3) Retinoid receptor binding and transactivation assays were performed on Compound B and Example 6 as described above.

RAR γ [4] = target: T4, RAR γ (Homo sapiens, UniProt P13631); assay: RARγ activation (transactivation); assay type: cell-based; details: Table 6; @ 1000 nM; read-out: RAR Activation % max (γ)
T4 sequence (P13631 1-454): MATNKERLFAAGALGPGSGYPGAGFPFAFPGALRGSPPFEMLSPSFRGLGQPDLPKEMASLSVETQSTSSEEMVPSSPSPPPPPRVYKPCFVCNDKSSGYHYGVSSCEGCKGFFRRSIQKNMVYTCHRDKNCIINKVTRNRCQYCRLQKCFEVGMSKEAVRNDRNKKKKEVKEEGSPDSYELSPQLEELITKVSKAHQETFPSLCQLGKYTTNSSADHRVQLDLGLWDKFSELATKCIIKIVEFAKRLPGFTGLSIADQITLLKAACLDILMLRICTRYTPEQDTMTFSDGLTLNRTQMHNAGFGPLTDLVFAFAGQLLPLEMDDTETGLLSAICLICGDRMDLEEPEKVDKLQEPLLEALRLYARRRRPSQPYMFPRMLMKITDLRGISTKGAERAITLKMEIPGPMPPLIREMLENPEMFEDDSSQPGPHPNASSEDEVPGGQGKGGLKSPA
Description: as §2, §3

RAR β [5] = target: T3, RAR β; assay: RARβ binding; details: Table 6
Description: as §2, §3

RAR γ [6] = target: T4, RAR γ; assay: RARγ binding; details: Table 6
Description: as §2, §3

T47-D = T47-D breast carcinoma cell growth inhibition (MTT), combination; assay type: cell-based, human; details: Compound B plus constant concentration of Example 6; FIG. 7
Protocol: The compound of Example 6 was tested for its ability to inhibit a human breast carcinoma cell line in combination with a retinoid having RARα activity, all-E-3,7-dimethyl-9-[(2-methoxy-4-methyl-6-octyloxy)phenyl]-2,4,6,8-nonatetraenoic acid (Compound B), as shown: [drawing 7]
Breast carcinoma cell line, T47-D, obtained from the ATCC [Accession No. HTB133] was grown in RPMI 1640 media supplemented with 10% FBS, 10 μg/ml insulin and 13 ng/ml gentamicin, and incubated at 37° C., 4.5% CO2 and 95.5% humidified air. The cells were harvested upon reaching 70-80% confluency and pelleted. The cells were resuspended in the media and seeded (150 μl/well) into 96-well plates (Corning) at a density allowing linear growth over a seven day assay period (i.e., T47-D seeded at 4×10^3 cells/well). […]
Liquid was removed by aspiration, 50 μl 95% ethanol was added, and the plates were shaken (Mini-Orbital Shaker, Bellco) for 15 minutes to solubilize the formazan product. The optical density of each well was measured using an automatic plate reader (Microplate EL320 Reader, Bio-Tek Instruments) with a test wavelength of 570 nm and a reference wavelength of 660 nm. The amount of cell growth inhibition caused by various concentrations of Compound B in combination with a constant concentration of the compound of Example 6 was determined in accordance with the following equation: [formula]

EC50 (RARα [1]; read-out: RAR Activation EC50 (α)) [nM] | Emax at 1 µM (RXRα) [%] | IC50 (RARα [2]) [nM] | EC50 (RAR β [3]) [nM] | Emax at 1 µM (RAR γ [4]) [%] | IC50 (RAR β [5]) [nM] | IC50 (RAR γ [6]) [nM] | Emax at 1 µM (RARα [1]; @ 1000 nM, read-out: RAR Activation % max (α)) [%] | Emax at 1 µM (RAR β [3]; @ 1000 nM, read-out: RAR Activation % max (β)) [%] | SMILES | antiproliferative activity in breast cancer cell line in combination (potentiation of Compound B) (T47-D)
11 | 0 | 240 | 5.3 | 48 | 500 | > 10000 | – | – | CCCCCCCCOc1cc(C)cc(OC)c1/C=C/C(C)=C/C=C/C(C)=C/C(=O)O [Compound B, all-E-3,7-dimethyl-9-[(2-methoxy-4-methyl-6-octyloxy)phenyl]-2,4,6,8-nonatetraenoic acid] | –
– | – | – | – | 9 | – | – | 4 | 8 | CC1=C(/C=C/C2=C(/C=C/C(C)=C/C(=O)O)CCCCC2)C(C)(C)CCC1 [Example 6, (2E,4E)-3-Methyl-5-(2-((E)-2(2,6,6-trimethyl-1-cyclohexen-1-yl)ethenyl)-1-cyclohepten-1-yl)-2,4-pentadienoic acid] | Enhanced antiproliferative activity
